# Reference: patent US20250186393A1 (SANOFI, priority 2022, published 2025)
# Experiments:
# UGT1A1 = molecular target: T1, UGT1A1 (Homo sapiens, UniProt P22309); conditions: cited from earlier work
# T1 sequence (P22309 26-533): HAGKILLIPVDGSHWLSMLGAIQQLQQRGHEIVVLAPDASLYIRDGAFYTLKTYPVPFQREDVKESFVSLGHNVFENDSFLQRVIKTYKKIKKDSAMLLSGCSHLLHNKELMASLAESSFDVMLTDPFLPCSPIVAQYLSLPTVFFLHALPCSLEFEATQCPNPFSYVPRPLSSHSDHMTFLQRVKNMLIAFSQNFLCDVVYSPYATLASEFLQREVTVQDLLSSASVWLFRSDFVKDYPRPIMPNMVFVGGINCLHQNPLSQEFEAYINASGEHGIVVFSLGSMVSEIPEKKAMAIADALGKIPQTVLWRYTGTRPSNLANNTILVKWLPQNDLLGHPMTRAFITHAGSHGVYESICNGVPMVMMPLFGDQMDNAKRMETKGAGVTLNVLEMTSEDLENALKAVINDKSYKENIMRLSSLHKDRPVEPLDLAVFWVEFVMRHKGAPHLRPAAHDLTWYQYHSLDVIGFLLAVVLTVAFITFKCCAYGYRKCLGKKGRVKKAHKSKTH
# UGT1A4 = molecular target: T2, UGT1A4 (Homo sapiens, UniProt P22310); conditions: cited from earlier work
# T2 sequence (P22310 29-534): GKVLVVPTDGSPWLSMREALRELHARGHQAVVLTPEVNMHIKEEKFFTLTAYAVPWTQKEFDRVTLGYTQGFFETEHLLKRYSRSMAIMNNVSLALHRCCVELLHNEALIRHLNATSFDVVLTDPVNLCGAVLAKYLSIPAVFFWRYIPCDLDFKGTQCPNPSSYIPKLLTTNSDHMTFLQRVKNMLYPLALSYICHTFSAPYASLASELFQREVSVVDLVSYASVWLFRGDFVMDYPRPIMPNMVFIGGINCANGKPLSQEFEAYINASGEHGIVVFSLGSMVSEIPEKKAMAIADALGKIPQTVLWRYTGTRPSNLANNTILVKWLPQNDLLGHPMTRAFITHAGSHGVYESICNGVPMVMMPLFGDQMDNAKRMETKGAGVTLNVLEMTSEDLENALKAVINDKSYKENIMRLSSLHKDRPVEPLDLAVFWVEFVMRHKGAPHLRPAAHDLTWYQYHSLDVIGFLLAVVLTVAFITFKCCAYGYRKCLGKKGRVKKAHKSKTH
# [1] = system: estrogen receptor (ER)-positive, HER2-negative locally advanced or metastatic breast cancer; test: AMEERA-3 open label randomized Phase 2 trial, efficacy (PFS, OS, ORR, CBR, DCR per RECIST 1.1 by ICR); type: in vivo, human
# [2] = AMEERA-3 safety: treatment-emergent adverse events, safety population; type: in vivo
# Text: Secondary endpoints are defined as follows: • Overall survival: the time interval from the date of randomization to the date of documented death (due to any cause); • Objective response rate: the proportion of participants who have a confirmed complete response (CR) or partial response (PR), as best overall response (BOR) derived from overall response determined by ICR as per RECIST 1.1, from the date of randomization to the date of end of treatment; • Disease control rate: the proportion of participants who have a confirmed CR, PR, stable disease (SD), or Non-CR/Non-PD as BOR determined by ICR as per RECIST 1.1 from the date of randomization to the date of end of treatment; • Clinical benefit rate: the proportion of participants who have a confirmed CR, PR, SD, or Non-CR/Non-PD for at least 24 weeks determined by ICR as per RECIST 1.1, from the date of randomization to the date of end of treatment; • Progression-free survival as per ESR1 status: determined at Cycle 1 Day 1; • Overall safety profile: evaluated by adverse events/serious adverse events and laboratory abnormalities.
# Concerning monitoring of adverse events, mention may be made of adverse events of special interest (AESI), who correspond to an adverse event (serious or nonserious) of scientific and medical concern specific to the Sponsor's product or program, for which ongoing monitoring and immediate notification by the Investigator to the Sponsor is required. Such events may require further investigation in order to characterize and understand them. For example: pregnancy of a participant or of a female partner of a participant entered in a study with IMP, symptomatic overdose with IMP, increase in ALT of a grade equal to or greater than 3, or photosensitivity.
# The analysis populations were defined as follows: • Enrolled population: all patients who signed the informed consent form. • Intent-to-treat (ITT) population: all patients from the enrolled population and for whom there was a confirmation of successful allocation of a randomization number by Interactive Response Technology (IRT). Patients were analyzed according to the treatment arm assigned at randomization. • Safety population: all patients randomly assigned to study intervention and who took at least one dose of study intervention. Patients were analyzed according to the treatment arm they actually received.
# The overview of adverse events (TEAEs: Treatment Emergent Adverse Events; SAEs: Serious Adverse Events; AESI: Adverse Events of Special Interest) is presented in Table 13.
# [3] = amcenestrant 400 mg QD, Kaplan-Meier
smiles,measurement,setting,value
"O=C(O)c1ccc2c(c1)CCCC(c1ccc(Cl)cc1Cl)=C2c1ccc(O[C@H]2CCN(CCCF)C2)cc1 [Amcenestrant, 6-(2,4-dichlorophenyl)-5-[4-[(3S)-1-(3-fluoropropyl)pyrrolidin-3-yl]oxyphenyl]-8,9-dihydro-7H-benzo[7]annulene-2-carboxylic acid]",Substrate of UGT1A1,UGT1A1,substrate
same,Substrate of UGT1A4,UGT1A4,substrate
same,Reduction in risk for disease progression or death,"[1]; ESR1 mutation at baseline, amcenestrant compared to PCEM",10.0%
same,Progression-free survival rate at 12 months,[1]; [3],20.4%
same,Progression-free survival rate at six months,[1]; [3],35.5%
same,Bradycardia/QTc prolongation,[2]; amcenestrant treatment arm,no bradycardia/QTc prolongation is observed
same,Gastrointestinal disorders,[2]; mostly of Grade 1 or 2,44.8%
same,Skin and subcutaneous tissue disorders,[2]; mostly of Grade 1 or 2,18.9%
same,"Participants with any AESI, %",[2]; safety population,(0.7) %
same,"Participants with any TEAE leading to treatment discontinuation, %",[2]; safety population,(3.5) %
same,"Participants with any TEAE, %",[2]; safety population,(82.5) %
same,"Participants with any grade ≥3 TEAE, %",[2]; safety population,(21.7) %
same,"Participants with any treatment emergent SAE, %",[2]; safety population,(16.1) %
same,"Participants with any treatment-related TEAE, %",[2]; safety population,(44.8) %
same,"Participants with any grade 5 TEAE, %","[2]; safety population, during the treatment period",(3.5) %
